Assay results reported in patent US9365591B2, “Fluoroergoline analogs” (MAP Pharmaceuticals, Inc., priority 2011, dated 2016).
Entries after “also recorded” stand apart in the source; their conditions may differ.

Key:
human 5-HT2B receptor [1] = target: T1, human 5-HT2B receptor (Homo sapiens, UniProt P41595); test: Aequorin assay, competitive antagonist activity at the 5-HT2B receptor; assay type: cell-based
T1 construct: host or cells: CHO-K1
Experimental: Percentage inhibition values were determined for 2-CF3 dihydroergotamine on the 5-HT2B receptor.

human 5-HT2B receptor [2] = target: T1, human 5-HT2B receptor; test: Aequorin assay, agonist activity at the 5-HT2B receptor; assay type: cell-based
Experimental: Percentage activation values were determined for 2-CF3 dihydroergotamine at the 5-HT2B receptor.

Salmonella typhimurium = test: Genotoxicity study, reversion of histidine-requiring Salmonella typhimurium strains; assay type: cell-based; conditions: five histidine-requiring strains, absence and presence of a rat liver metabolizing system; Dunnett's test, 1% level
Experimental: Genotoxicity studies were performed to evaluate the potential mutagenic activity of 2-CF3-DHE. Studies were performed to examine the ability of 2-CF3-DHE to revert five histidine-requiring strains of Salmonella typhimurium in the absence and presence of a rat liver metabolizing system. […] This is consistent with the conclusion that there was no evidence of any mutagenic activity observed with 2-CF3-DHE.

human saphenous veins = test: Constriction assay, human saphenous veins; conditions: CCRC 100 pM to 10 μM, 6 donors
Experimental: (§1) Human coronary arteries and saphenous veins were set up under isometric conditions on either small vessel wire myographs or organ baths, depending on vessel size, in order to examine the influence of the test article on the relative changes in tension. In order to assess tissue viability, the vessel segments were constricted with a high potassium solution (KPSS, 62.5 mM) three times. Vessels were then pre-constricted with sumatriptan (1 μM) and endothelium-dependent vasorelaxation investigated using bradykinin (10 μM). […] All vessels were fully relaxed at the end of the experiment using forskolin (10 μM).
(§2) Coronary arteries and small saphenous veins, having been cut into ring segments of approximately 2 mm length, were attached by 40 μm diameter wire running through the lumen of the vessel to stainless steel heads in 5 mL myograph baths containing PSS (physiological saline solution), aerated with 95% 02 and 5% CO2 and maintained at a temperature of 37° C. Changes in tension were recorded using a Danish Myotech isometric transducer. The vessel segments were allowed to equilibrate for at least 30 minutes after set up. Segments were processed through a standardization procedure of tension application, which reduces signal variability and allows for optimal tissue response to be obtained prior the pharmacological intervention. […]

[3] = Metabolism in human liver microsomes; conditions: 1 μM, 37° C., 0-60 min; for metabolism by human liver microsomes in the presence of NADPH: 0.2 mg protein/mL
Experimental: Metabolism of dihydroergotamine (DHE) and 2-CF3 DHE was evaluated in human liver microsomes. DHE mesylate and 2-CF3 DHE mesylate (1 μM each) were incubated separately with human liver microsomes (0.2 mg protein/mL) in triplicate at 37° C. in 0.2 mL (final volume) incubation buffer (50 mM potassium phosphate buffer, pH 7.4, 3 mM MgCl2 and 1 mM EDTA, pH 7.4) with or without cofactor, NADPH-generating system. The NADPH-generating system consisted of 1 mM NADPH, pH 7.4, 5 mM glucose-6-phosphate, pH 7.4 and 1 unit/mL glucose-6-phosphate dehydrogenase. DHE was added to the incubation mixtures in water. 2-CF3-DHE was added to incubation mixtures in 50:50 (v:v) acetonitrile:water. A low level of acetonitrile in the incubation was maintained to avoid any solvent effects on enzyme activity (typically at 0.5% or lower). Reactions were initiated by the addition of the NADPH-generating system and were terminated at 0, 15, 30 and 60 minutes after initiation by the addition of 175 μL of stop reagent (acetonitrile) containing two internal standards (4′-hydroxydiclofenac-d4 and 1′-hydroxymidazolam-d4, 200 and 50 ng/mL in the final stopped incubation, respectively). The samples were then centrifuged and the supernatant fractions were analyzed by LC/MS/MS to quantify the formation of 8′-OH-DHE (metabolite) in the DHE samples and DHE and 8′-OH-DHE in the 2-CF3-DHE samples.

human coronary arteries = test: Constriction assay, human coronary arteries; conditions: CCRC 100 pM to 10 μM in half-log steps, n=6
Experimental: as §1, §2

T1 sequence (P41595 whole entry): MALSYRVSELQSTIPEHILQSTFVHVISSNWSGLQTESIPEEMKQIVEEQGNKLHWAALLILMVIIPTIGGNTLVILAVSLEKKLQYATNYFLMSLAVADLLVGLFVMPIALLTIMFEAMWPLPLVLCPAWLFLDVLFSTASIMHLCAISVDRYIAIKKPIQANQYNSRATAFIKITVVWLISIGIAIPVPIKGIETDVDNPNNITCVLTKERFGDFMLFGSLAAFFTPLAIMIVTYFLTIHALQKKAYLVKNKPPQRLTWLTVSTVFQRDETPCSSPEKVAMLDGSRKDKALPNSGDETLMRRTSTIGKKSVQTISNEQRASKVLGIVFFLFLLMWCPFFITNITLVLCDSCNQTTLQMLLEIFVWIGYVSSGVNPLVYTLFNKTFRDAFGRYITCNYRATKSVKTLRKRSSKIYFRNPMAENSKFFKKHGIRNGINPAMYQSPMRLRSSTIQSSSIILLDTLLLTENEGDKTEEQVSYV

Structure (SMILES): CN1C[C@H](C(=O)N[C@]2(C)O[C@@]3(O)C4CCCN4C(=O)[C@H](Cc4ccccc4)N3C2=O)CC2c3cccc4[nH]c(C(F)(F)F)c(c34)CC21 (stereo partly drawn) [2-CF3-dihydroergotamine]
- antagonism of the 5-HT2B receptor (human 5-HT2B receptor [1]; FIG. 2): potent antagonism
- agonist activity at the 5-HT2B receptor (human 5-HT2B receptor [2]; 0.01 nM to 20,000 nM, compared with Emax of α-methyl-5-HT): no agonist activity; also recorded: little agonist activity

Structure (SMILES): CN1C[C@H](C(=O)N[C@]2(C)O[C@@]3(O)[C@@H]4CCCN4C(=O)[C@H](Cc4ccccc4)N3C2=O)CC2c3cccc4[nH]c(C(F)(F)F)c(c34)CC21 (stereo partly drawn) [2-CF3-dihydroergotamine]
- mutagenic activity, revertant numbers (Salmonella typhimurium): no statistically significant increases in the revertant numbers
- change in tension, saphenous veins (human saphenous veins): no change in tension
- metabolism by human liver microsomes in the presence of NADPH ([3]; listed as 2-CF3-DHE): extensively metabolized
- intrinsic clearance, slower than that of DHE ([3]; human liver microsomes 0.2 mg protein/mL, with NADPH): about 85%
- change in tension, coronary arteries (human coronary arteries; listed as 2-CF3-DHE): only a very slight mean increase in tension; also recorded: slight mean increase in tension

Structure (SMILES): Cc1cc(NC(=O)Nc2ccc3c(ccn3C)c2)sn1 [SB204741, reference compound]
- IC50 (human 5-HT2B receptor [1]; CHO-K1 cells, reference agonist at its EC50, 0.005 nM to 10,000 nM, read-out: IC50, antagonism of the 5-HT2B receptor): 28.8 nM

Structure (SMILES): CN1C[C@H](C(=O)N[C@]2(C)O[C@@]3(O)[C@@H]4CCCN4C(=O)[C@H](Cc4ccccc4)N3C2=O)C[C@@H]2c3cccc4[nH]cc(c34)C[C@H]21 [dihydroergotamine, reference compound]
- metabolism by human liver microsomes in the presence of NADPH ([3]; listed as DHE): extensively metabolized

Structure (SMILES): CNS(=O)(=O)Cc1ccc2[nH]cc(CCN(C)C)c2c1 [sumatriptan, reference compound]
- EC50 (human saphenous veins; Homo sapiens, read-out: EC50, constriction curve, saphenous veins): 187 nM
- EC50 (human coronary arteries; Homo sapiens, read-out: EC50, constriction curve, coronary arteries): 112 nM

Structure (SMILES): CC(N)Cc1c[nH]c2ccc(O)cc12 (stereo not drawn) [α-methyl-5-HT, reference compound]
- EC50 (human 5-HT2B receptor [2]; CHO-K1 cells coexpressing apoaequorin and recombinant human 5-HT2B, reference agonist, read-out: EC50, agonism of the 5-HT2B receptor): 1.01 nM
